PubChem BioAssay AID256 (DTP/NCI, 2004)
Where “and” joins values, the source holds several entries; their conditions need not be identical. Identical values can stand only once. Toxic doses and inconclusive results are not listed. The calls were made as follows: active = survival T/C of 150% or more; inactive = T/C below 125% in these data.

Tested on: CD2F1 mice, L1210 leukemia ip, survival T/C
Assay: NCI In Vivo Anticancer Drug Screen. Data for tumor model L1210 Leukemia (intraperitoneal) in CD2F1 (CDF1) mice
Settings: endpoint: mean survival time, higher = longer survival
How it was run: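 Transplantable tumor in mice; compound-treated vs vehicle-treated groups. Read-out = treated/control ratio of the measured endpoint.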

[1] = dose: 50.0 mg/kg/injection, schedule: Q04DX003 (ip), vehicle: saline
[2] = dose: 100.0 mg/kg/injection, schedule: Q04DX003 (ip), vehicle: saline
[3] = dose: 200.0 mg/kg/injection, schedule: Q04DX003 (ip), vehicle: saline
[4] = dose: 50.0 mg/kg/injection, schedule: Q04DX003 (ip), vehicle: saline with Tween-80
[5] = dose: 100.0 mg/kg/injection, schedule: Q04DX003 (ip), vehicle: saline with Tween-80
[6] = dose: 100.0 mg/kg/injection, schedule: Q01DX001 (ip), vehicle: saline with Tween-80
[7] = dose: 200.0 mg/kg/injection, schedule: Q01DX001 (ip), vehicle: saline with Tween-80
[8] = dose: 400.0 mg/kg/injection, schedule: Q01DX001 (ip), vehicle: saline with Tween-80
[9] = dose: 100.0 mg/kg/injection, schedule: Q04DX002 (ip), vehicle: saline with Tween-80
[10] = dose: 100.0 mg/kg/injection, schedule: Q01DX009 (ip), vehicle: saline with Tween-80
[11] = dose: 200.0 mg/kg/injection, schedule: Q01DX009 (ip), vehicle: saline with Tween-80
[12] = dose: 400.0 mg/kg/injection, schedule: Q01DX009 (ip), vehicle: saline with Tween-80
[13] = dose: 400.0 mg/kg/injection, schedule: Q04DX003 (ip), vehicle: saline with Tween-80

Measured: T/C

NC(=O)C1=C(CCCCl)c2ccccc2C1=O
inactive: [1] 112 % of control | dose: 100.0 mg/kg/injection, schedule: Q01DX001 (ip), vehicle: saline 102 % of control | [2] 115 % of control | dose: 200.0 mg/kg/injection, schedule: Q01DX001 (ip), vehicle: saline 95 % of control | [3] 90 % of control

Nc1cc(OCc2ccccc2)c2n[nH]nc2n1
inactive: dose: 25.0 mg/kg/injection, schedule: Q01DX005 (ip), vehicle: other 96 % of control | dose: 50.0 mg/kg/injection, schedule: Q01DX005 (ip), vehicle: other 92 % of control | dose: 200.0 mg/kg/injection, schedule: Q01DX005 (ip), vehicle: other 94 % of control | dose: 400.0 mg/kg/injection, schedule: Q01DX005 (ip), vehicle: other 105 % of control

CC1CC(C)(C)N=C(CCNCc2ccccc2)O1 (centres undefined)
inactive: dose: 6.25 mg/kg/injection, schedule: Q01DX001 (ip), vehicle: saline 95 % of control | dose: 12.5 mg/kg/injection, schedule: Q01DX001 (ip), vehicle: saline 110 % of control | dose: 25.0 mg/kg/injection, schedule: Q01DX001 (ip), vehicle: saline 103 % of control

C=C(C)C(=O)OCC(O)C[N+](C)(C)C (centres undefined)
inactive: [4] 96 % of control | [5] 87 % of control

OCC1OC(c2nn(-c3ccccc3)[n+](-c3ccccc3)n2)C(O)C1O (centres undefined)
inactive: dose: 12.5 mg/kg/injection, schedule: Q01DX005 (ip), vehicle: water 106 % of control | dose: 25.0 mg/kg/injection, schedule: Q01DX005 (ip), vehicle: water 97 % of control | dose: 50.0 mg/kg/injection, schedule: Q01DX005 (ip), vehicle: water 95 % of control | dose: 100.0 mg/kg/injection, schedule: Q01DX005 (ip), vehicle: water 106 % of control | dose: 200.0 mg/kg/injection, schedule: Q01DX005 (ip), vehicle: water 103 % of control

Cc1ccc(S(=O)(=O)OC(c2ccc(C(OS(=O)(=O)c3ccc(C)cc3)(C(F)(F)F)C(F)(F)F)cc2)(C(F)(F)F)C(F)(F)F)cc1
inactive: [6] 96 % of control | [7] 95 % of control | [8] 90 % of control

Cc1ccc(N2C(=O)CSC2=S)c(Br)c1
inactive: [6] 101 % of control | [7] 101 % of control | [8] 106 % of control

CC(=O)OC1CCC2(C)C3=CCC4(C)C(C(C)/C=C\C(C)C(C)C)CCC4C34C=CC2(C1)C1C(=O)OC(=O)C14 (centres undefined)
inactive: dose: 50.0 mg/kg/injection, schedule: Q01DX001 (ip), vehicle: saline with Tween-80 97 % of control | [6] 91 % of control | [9] 86 % of control | [7] 95 % of control

c1ccc2c(c1)OB(C1CCCC1)O2
inactive: dose: 100.0 mg/kg/injection, schedule: Q01DX009 (ip), vehicle: other 93 % of control | dose: 200.0 mg/kg/injection, schedule: Q01DX009 (ip), vehicle: other 105 % of control | dose: 400.0 mg/kg/injection, schedule: Q01DX009 (ip), vehicle: other 109 % of control

COc1ccc(C=Nc2ccc(C)cc2)cc1
inactive: [10] 108 % of control | [5] 103 % of control | [11] 98 % of control | dose: 200.0 mg/kg/injection, schedule: Q04DX003 (ip), vehicle: saline with Tween-80 115 % of control | [12] 104 % of control | [13] 116 % of control

C1CC[N-]CC1.C1CC[N-]CC1.CC(=O)CC(C)=O.CC(=O)CC(C)=O.[Ni+2]
inactive: dose: 10.0 mg/kg/injection, schedule: Q04DX003 (ip), vehicle: saline 94 % of control | dose: 20.0 mg/kg/injection, schedule: Q04DX003 (ip), vehicle: saline 96 % of control | dose: 40.0 mg/kg/injection, schedule: Q04DX003 (ip), vehicle: saline 104 % of control

OCC1OC([Se])C(O)C(O)C1O.[CH3][Sb][CH3] (centres undefined)
inactive: dose: 50.0 mg/kg/injection, schedule: Q01DX009 (ip), vehicle: Klucel (hydroxypropylcellulose) (HPC) 88 % of control

Nc1cc(NCc2ccco2)ncn1
inactive: dose: 37.5 mg/kg/injection, schedule: Q01DX009 (ip), vehicle: Klucel (hydroxypropylcellulose) (HPC) 107 % of control | dose: 75.0 mg/kg/injection, schedule: Q01DX009 (ip), vehicle: Klucel (hydroxypropylcellulose) (HPC) 97 % of control and 104 % of control

O=S(O)C(=NCc1ccccc1)NCc1ccccc1
inactive: [10] 105 % of control | [11] 86 % of control

C=CCOCC(O)CN(CCCC)CCCC (centres undefined)
inactive: dose: 25.0 mg/kg/injection, schedule: Q04DX003 (ip), vehicle: saline with Tween-80 104 % of control | [4] 106 % of control | [5] 90 % of control and 110 % of control

CCCCCCCCCCCCCCCCCCc1ccc(O)cc1O
inactive: [10] 96 % of control | [11] 101 % of control | [12] 104 % of control

C/C(=N/NC(N)=S)c1ccc(NC(=O)C(Cl)Cl)cc1
inactive: dose: 75.0 mg/kg/injection, schedule: Q01DX001 (ip), vehicle: saline 100 % of control | dose: 150.0 mg/kg/injection, schedule: Q01DX001 (ip), vehicle: saline 96 % of control

Cc1ccc(S(=O)(=O)N/N=C/c2ccc(O)c(O)c2)cc1
inactive: dose: 12.5 mg/kg/injection, schedule: Q04DX003 (ip), vehicle: other 101 % of control | dose: 25.0 mg/kg/injection, schedule: Q04DX003 (ip), vehicle: other 98 % of control | dose: 50.0 mg/kg/injection, schedule: Q04DX003 (ip), vehicle: other 101 % of control | dose: 100.0 mg/kg/injection, schedule: Q04DX003 (ip), vehicle: other 101 % of control | dose: 200.0 mg/kg/injection, schedule: Q04DX003 (ip), vehicle: other 95 % of control | dose: 400.0 mg/kg/injection, schedule: Q04DX003 (ip), vehicle: other 101 % of control

CCCCNP(=S)(NCCCC)NCCCC
inactive: [9] 94 % of control | dose: 200.0 mg/kg/injection, schedule: Q04DX002 (ip), vehicle: saline with Tween-80 94 % of control | dose: 400.0 mg/kg/injection, schedule: Q04DX002 (ip), vehicle: saline with Tween-80 98 % of control

COc1cc([N+](=O)[O-])ccc1P(=O)(O)O
inactive: [1] 101 % of control | [2] 97 % of control | [3] 91 % of control

O=C1C=CC(=Nc2ccc(Cl)cc2)O1
inactive: [5] 101 % of control | [13] 97 % of control

C[CH2][Ge]([CH2]C)[CH2]C.C[CH2][Ge]([CH2]C)[CH2]C.C[CH2][Ge]([CH2]C)[O][Ge]([CH2]C)[CH2]C
inactive: dose: 6.25 mg/kg/injection, schedule: Q01DX009 (ip), vehicle: saline with Tween-80 97 % of control and 106 % of control | dose: 12.5 mg/kg/injection, schedule: Q01DX009 (ip), vehicle: saline with Tween-80 96 % of control and 104 % of control | dose: 25.0 mg/kg/injection, schedule: Q01DX009 (ip), vehicle: saline with Tween-80 97 % of control and 112 % of control | dose: 50.0 mg/kg/injection, schedule: Q01DX009 (ip), vehicle: saline with Tween-80 104 % of control and 112 % of control | [10] 109 % of control

C=C1C(=O)OCC2C(C(=O)O)=CC3C(C)C(C)=CC123 (centres undefined)
inactive: dose: 20.0 mg/kg/injection, schedule: Q04DX003 (ip), vehicle: saline with Tween-80 109 % of control | dose: 40.0 mg/kg/injection, schedule: Q04DX003 (ip), vehicle: saline with Tween-80 121 % of control | dose: 80.0 mg/kg/injection, schedule: Q04DX003 (ip), vehicle: saline with Tween-80 120 % of control

O=C(O)/C(=C\c1ccc(Br)cc1)c1ccc(C(F)(F)F)cc1[N+](=O)[O-]
inactive: dose: 75.0 mg/kg/injection, schedule: Q04DX003 (ip), vehicle: saline 89 % of control | dose: 150.0 mg/kg/injection, schedule: Q04DX003 (ip), vehicle: saline 101 % of control | dose: 300.0 mg/kg/injection, schedule: Q04DX003 (ip), vehicle: saline 100 % of control
